System: patients with cGVHD

Structure (SMILES): CC(C)NC(=O)COc1cccc(-c2nc(Nc3ccc4[nH]ncc4c3)c3ccccc3n2)c1 [Belumosudil, 2-{3-[4-(1H-indazol-5-ylamino)-2-quinazolinyl]phenoxy}-N-(propan-2-yl) acetamide]
- Vertigo: # Events (Cohort 1 200 mg QD): 2
- Vertigo: Affected/At Risk (%) (Cohort 1 200 mg QD): 2/17 (11.76%)
- Vision blurred: # Events (Cohort 1 200 mg QD): 0
- Vision blurred: Affected/At Risk (%) (Cohort 1 200 mg QD): 0/17 (0%)
- Vomiting: # Events (Cohort 1 200 mg QD): 4
- Vomiting: Affected/At Risk (%) (Cohort 1 200 mg QD): 2/17 (11.76%)
- Weight decreased: # Events (Cohort 1 200 mg QD): 1
- Weight decreased: Affected/At Risk (%) (Cohort 1 200 mg QD): 1/17 (5.88%)
- Weight increased: # Events (Cohort 1 200 mg QD): 9
- Weight increased: Affected/At Risk (%) (Cohort 1 200 mg QD): 3/17 (17.65%)
- White blood cell count decreased: # Events (Cohort 1 200 mg QD): 1
- White blood cell count decreased: Affected/At Risk (%) (Cohort 1 200 mg QD): 1/17 (5.88%)
- Abdominal distension: # Events (Cohort 2 200 mg BID): 0
- Abdominal distension: Affected/At Risk (%) (Cohort 2 200 mg BID): 0/16 (0%)
- Abdominal pain upper: # Events (Cohort 2 200 mg BID): 1
- Abdominal pain upper: Affected/At Risk (%) (Cohort 2 200 mg BID): 1/16 (6.25%)
- Abdominal pain: # Events (Cohort 2 200 mg BID): 4
- Abdominal pain: Affected/At Risk (%) (Cohort 2 200 mg BID): 2/16 (12.5%)
- Actinic keratosis: # Events (Cohort 2 200 mg BID): 1
- Actinic keratosis: Affected/At Risk (%) (Cohort 2 200 mg BID): 1/16 (6.25%)
- Acute kidney injury: # Events (Cohort 2 200 mg BID): 2
- Acute kidney injury: Affected/At Risk (%) (Cohort 2 200 mg BID): 2/16 (12.5%)
- Acute respiratory distress syndrome: # Events (Cohort 2 200 mg BID): 0
- Acute respiratory distress syndrome: Affected/At Risk (%) (Cohort 2 200 mg BID): 0/16 (0%)
- Adrenal insufficiency: # Events (Cohort 2 200 mg BID): 0
- Adrenal insufficiency: Affected/At Risk (%) (Cohort 2 200 mg BID): 0/16 (0%)
- Alanine aminotransferase increased: # Events (Cohort 2 200 mg BID): 4
- Alanine aminotransferase increased: Affected/At Risk (%) (Cohort 2 200 mg BID): 3/16 (18.75%)
- All grade ALT/AST increased, No. (%) (Cohort 2 200 mg BID): 5 (31)
- All grade Cough, No. (%) (Cohort 2 200 mg BID): 4 (25)
- All grade Diarrhea, No. (%) (Cohort 2 200 mg BID): 5 (31)
- All grade Dyspnea, No. (%) (Cohort 2 200 mg BID): 6 (38)
- All grade Fatigue, No. (%) (Cohort 2 200 mg BID): 3 (19)
- All grade Headache, No. (%) (Cohort 2 200 mg BID): 3 (19)
- All grade Hypertension, No. (%) (Cohort 2 200 mg BID): 2 (13)
- All grade Nausea, No. (%) (Cohort 2 200 mg BID): 4 (25)
- All grade Peripheral edema, No. (%) (Cohort 2 200 mg BID): 4 (25)
- All grade URI, No. (%) (Cohort 2 200 mg BID): 9 (56)
- All-Cause Mortality, % (Cohort 2 200 mg BID): (18.75%)
- All-Cause Mortality, Affected/At Risk (Cohort 2 200 mg BID): 3/16
- Anaemia: # Events (Cohort 2 200 mg BID): 8
- Anaemia: Affected/At Risk (%) (Cohort 2 200 mg BID): 4/16 (25%)
- Anal incontinence: # Events (Cohort 2 200 mg BID): 0
- Anal incontinence: Affected/At Risk (%) (Cohort 2 200 mg BID): 0/16 (0%)
- Anxiety: # Events (Cohort 2 200 mg BID): 3
- Anxiety: Affected/At Risk (%) (Cohort 2 200 mg BID): 2/16 (12.5%)
- Any AE, No. (%) (Cohort 2 200 mg BID): 16 (100)
- Arthralgia: # Events (Cohort 2 200 mg BID): 1
- Arthralgia: Affected/At Risk (%) (Cohort 2 200 mg BID): 1/16 (6.25%)
- Aspartate aminotransferase increased: # Events (Cohort 2 200 mg BID): 2
- Aspartate aminotransferase increased: Affected/At Risk (%) (Cohort 2 200 mg BID): 2/16 (12.5%)
- Asthenia: # Events (Cohort 2 200 mg BID): 1
- Asthenia: Affected/At Risk (%) (Cohort 2 200 mg BID): 1/16 (6.25%)
- Atelectasis: # Events (Cohort 2 200 mg BID): 0
- Atelectasis: Affected/At Risk (%) (Cohort 2 200 mg BID): 0/16 (0%)
- Back pain: # Events (Cohort 2 200 mg BID): 2
- Back pain: Affected/At Risk (%) (Cohort 2 200 mg BID): 2/16 (12.5%)
- Balance disorder: # Events (Cohort 2 200 mg BID): 1
- Balance disorder: Affected/At Risk (%) (Cohort 2 200 mg BID): 1/16 (6.25%)
- Basal cell carcinoma: # Events (Cohort 2 200 mg BID): 1
- Basal cell carcinoma: Affected/At Risk (%) (Cohort 2 200 mg BID): 1/16 (6.25%)
- Benign prostatic hyperplasia: # Events (Cohort 2 200 mg BID): 0
- Benign prostatic hyperplasia: Affected/At Risk (%) (Cohort 2 200 mg BID): 0/16 (0%)
- Blepharitis: # Events (Cohort 2 200 mg BID): 0
- Blepharitis: Affected/At Risk (%) (Cohort 2 200 mg BID): 0/16 (0%)
- Blister: # Events (Cohort 2 200 mg BID): 3
- Blister: Affected/At Risk (%) (Cohort 2 200 mg BID): 2/16 (12.5%)
- Blood alkaline phosphatase increased: # Events (Cohort 2 200 mg BID): 1
- Blood alkaline phosphatase increased: Affected/At Risk (%) (Cohort 2 200 mg BID): 1/16 (6.25%)
- Blood chloride decreased: # Events (Cohort 2 200 mg BID): 1
- Blood chloride decreased: Affected/At Risk (%) (Cohort 2 200 mg BID): 1/16 (6.25%)
- Blood cholesterol increased: # Events (Cohort 2 200 mg BID): 0
- Blood cholesterol increased: Affected/At Risk (%) (Cohort 2 200 mg BID): 0/16 (0%)
- Blood creatine increased: # Events (Cohort 2 200 mg BID): 1
- Blood creatine increased: Affected/At Risk (%) (Cohort 2 200 mg BID): 1/16 (6.25%)
- Blood creatine phosphokinase increased: # Events (Cohort 2 200 mg BID): 0
- Blood creatine phosphokinase increased: Affected/At Risk (%) (Cohort 2 200 mg BID): 0/16 (0%)
- Blood creatinine increased: # Events (Cohort 2 200 mg BID): 1
- Blood creatinine increased: Affected/At Risk (%) (Cohort 2 200 mg BID): 1/16 (6.25%)
- Blood loss anaemia: # Events (Cohort 2 200 mg BID): 0
- Blood loss anaemia: Affected/At Risk (%) (Cohort 2 200 mg BID): 0/16 (0%)
- Bronchial secretion retention: # Events (Cohort 2 200 mg BID): 1
- Bronchial secretion retention: Affected/At Risk (%) (Cohort 2 200 mg BID): 1/16 (6.25%)
- Bronchitis: # Events (Cohort 2 200 mg BID): 0
- Bronchitis: Affected/At Risk (%) (Cohort 2 200 mg BID): 0/16 (0%)
